Results taken from US11214803B2, “Modulators of YAP1 expression” (Ionis Pharmaceuticals, Inc., priority 2019, dated 2022).

How the values were obtained:
Yap1 mRNA [1] = experiment: Dose-dependent inhibition of human Yap1 in SNU-449 cells (Example 9, RTS36584); assay type: cell-based; conditions: free uptake; for % UTC (Yap1 mRNA): approximately 48 hours; for IC50: linear regression on a log/linear plot
In short: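 Read-out was Yap1 mRNA (primer-probe RTS36584) normalised to total RNA by RIBOGREEN, given as % of untreated cells, with IC50 fitted by linear regression of log/linear data. Oligonucleotides were dosed by free uptake to SNU-449 cells, 10,000/well, for ~48 h.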

[2] = Tolerability in Sprague-Dawley rats, plasma chemistry markers (Example 22); assay type: in vivo; conditions: male Sprague-Dawley rats, 50 mg/kg s.c. weekly for 6 weeks (7 doses), 48 hours after last dose
Experimental: Sprague-Dawley rats are a multipurpose model used for safety and efficacy evaluations. The rats were treated with Ionis modified oligonucleotides from the studies described in the Examples above and evaluated for changes in the levels of various plasma chemistry markers.

Yap1 mRNA [3] = experiment: Yap1 mRNA in SCC25 cells, RNA analysis (Example 25); assay type: cell-based, human; conditions: free uptake, 48 hours, RTS4814, normalized to actin-beta
Experimental: Modified oligonucleotides described in the studies above were tested at various doses in squamous cell carcinoma cell SCC25. A control oligonucleotide 792169 (a 3-10-3 cET gapmer with a full phosphorothioate backbone, […], designated herein as SEQ ID No.: 2940; is not complementary to any known human gene) was also tested.
Cultured SCC25 cells at a density of 5,000 cells per well were treated using free uptake with modified oligonucleotides diluted to concentrations described in the tables below. After approximately 48 hours, Yap1 mRNA levels were measured as previously described using the Human Yap1 primer-probe set RTS4814. Yap1 mRNA levels were normalized to actin-beta content, as measured by primer probe set RTS5002 (forward sequence […], designated herein as SEQ ID NO.: 20; reverse sequence […], designated herein as SEQ ID NO.: 21; probe sequence […], designated herein as SEQ ID NO.: 22). Results are presented in the tables below as percent control of the amount of Yap1 mRNA relative to untreated control cells (% UTC).

Yap1 mRNA [4] = experiment: Inhibition of human Yap1 mRNA in epidermoid carcinoma A-431 xenograft tumors (Example 27); assay type: in vivo; conditions: A-431 xenografts in NCr-Foxn1nu mice, 6-8 hours post final dose, relative to PBS
Experimental: An epidermoid carcinoma A-431 xenograft tumor model was used to evaluate activity of modified oligonucleotides targeted to human Yap1. Five million A-431 cells in 30% matrigel were implanted subcutaneously into the flanks of female NCr-Foxn1nu mice (from Taconic) at 4-6 weeks of age. When tumors reached an average volume of 40 mm^3, approximately two weeks post-implantation, groups of four mice each were administered at either 25 mg/kg or 50 mg/kg daily with modified oligonucleotides for […] (5 doses). Tumors were collected 6-8 hours post final dose and tested for Yap1 mRNA knockdown by RT-qPCR. Yap1 mRNA levels were measured as previously described using the Human Yap1 primer-probe set RTS4814. Yap1 mRNA levels were normalized to actin-beta content, as measured by primer probe set RTS5002. Results are presented in the tables below as percent control of the amount of Yap1 mRNA relative to PBS treated animals (% control).

[5] = Cynomolgus monkey tolerability, pro-inflammatory proteins analysis, Complement C3 and CRP (Example 34); assay type: in vivo; conditions: cynomolgus monkeys, 35 mg/kg subcutaneously; for CRP: day 44
Experimental: To evaluate any inflammatory effect of Ionis oligonucleotides in cynomolgus monkeys, blood samples were taken for analysis. The monkeys were fasted overnight prior to blood collection. On day 42 (pre-dose and 24 hours post-dose), approximately 0.8 mL of blood was collected from each animal and put into tubes without anticoagulant for serum separation. […] Complement C3 were measured using a Toshiba 120 FR NEO chemistry analyzer (Toshiba Co., Japan). […] Another marker of inflammation, C-Reactive Protein (CRP) was tested together with the clinical chemistry parameters tested for liver function above.

[6] = Cynomolgus monkey tolerability, hematology (Example 34); assay type: in vivo, cynomolgus monkeys; conditions: for BAS / EOS / HCT / HGB / LUC / LYM / MCH / MCHC / MCV / MON / NEU / PLT / RBC / RCDW / Retic / WBC: cynomolgus monkey, in vivo, sc, 35 mg/kg; for MPV: cynomolgus monkeys, 35 mg/kg subcutaneously, day 44
Experimental: To evaluate any effect of Ionis oligonucleotides in cynomolgus monkeys on hematologic parameters, blood samples of approximately 0.5 mL of blood was collected from each of the available study animals on day 44. The samples were collected in tubes containing K2-EDTA. Samples were analyzed for red blood cell (RBC) count, Hemoglobin (HGB), Hematocrit (HCT), Mean corpuscular volume (MCV), mean corpuscular hemoglobin (MCH), mean corpuscular hemoglobin concentration (MCHC), RBC Distribution Width (RCDW), reticulocyte count (Retic), platelet count (PLT), mean platelet volume (MPV), white blood cells (WBC) count, individual white blood cell counts, such as that of monocytes (MON), neutrophils (NEU), lymphocytes (LYM), eosinophils (EOS), basophils (BAS), and large unstained cells (LUC) using an ADVIA2120i hematology analyzer (Siemens, USA).

[7] = rat, in vivo, sc, 50 mg/kg
[8] = Cynomolgus monkey tolerability, kidney and liver function markers (Example 34); conditions: cynomolgus monkeys, 35 mg/kg subcutaneously, day 44

1198728 (TATTAGAGTATGTGGC; modified gapmer, further chemistry not given here) [compound 1198728]
% UTC (Yap1 mRNA) (Yap1 mRNA [1]; 31.3 nM): 51 % UTC
% UTC (Yap1 mRNA) (Yap1 mRNA [1]; 125.0 nM): 28 % UTC
% UTC (Yap1 mRNA) (Yap1 mRNA [1]; 500.0 nM): 9 % UTC
% UTC (Yap1 mRNA) (Yap1 mRNA [1]; 2000.00 nM): 3 % UTC
IC50 (Yap1 mRNA [1]): < 30 nM
ALT [2]: 54 U/L
AST [2]: 71 U/L
BUN [2]: 22 mg/dL
TBIL [2]: 0.18 mg/dL
Yap1 mRNA, % UTC (Yap1 mRNA [3]; 0.04 μM): 71 % UTC
Yap1 mRNA, % UTC (Yap1 mRNA [3]; 0.2 μM): 31 % UTC
Yap1 mRNA, % UTC (Yap1 mRNA [3]; 1 μM): 15 % UTC
Yap1 mRNA, % UTC (Yap1 mRNA [3]; 5 μM): 7 % UTC
Yap1 mRNA in tumors, % control (Yap1 mRNA [4]; 25 mpk daily (5 doses)): 47 % control
Yap1 mRNA in tumors, % control (Yap1 mRNA [4]; 50 mpk daily (5 doses)): 39 % control
Complement C3 ([5]; Day 42 (pre-dose)): 93 mg/dL
Complement C3 ([5]; day 42 (24 hr post-dose)): 90 mg/dL
CRP [5]: 4.0 mg/L
BAS [6]: 0.5%
EOS [6]: 2.2%
HCT [6]: 47%
HGB [6]: 14 g/dL
LUC [6]: 0.9%
LYM [6]: 64%
MCH [6]: 23 pg
MCHC [6]: 29 g/dL
MCV [6]: 80 fL
MON [6]: 2.9%
NEU [6]: 29%
PLT [6]: 428 10^3/μL
RBC [6]: 5.9e+06 µL⁻¹
RCDW [6]: 12%
Retic [6]: 1.3%
WBC [6]: 10700 µL⁻¹
MPV [6]: 8.0 fL
URINE P/C ratio (total protein to creatinine ratio) [7]: 7
ALB [8]: 4.1 g/dL
ALP [8]: 1165 IU/L
ALT [8]: 58 IU/L
AST [8]: 92 IU/L
BUN [8]: 26 mg/dL
CREA [8]: 0.9 mg/dL
GGT [8]: 59 IU/L
GLO [8]: 3.2 g/dL
GLU [8]: 95 mg/dL
HDL [8]: 95 mg/dL
LDL [8]: 57 mg/dL
TBIL [8]: 0.3 mg/dL
TG [8]: 24 mg/dL
TP [8]: 7.3 g/dL

1198439 (AGTGTATGTCAGAAGA; sugar, 5-methylcytosine, phosphorothioate modifications, further chemistry not given here) [compound 1198439]
% UTC (Yap1 mRNA) (Yap1 mRNA [1]; 31.3 nM): 44 % UTC
% UTC (Yap1 mRNA) (Yap1 mRNA [1]; 125.0 nM): 21 % UTC
% UTC (Yap1 mRNA) (Yap1 mRNA [1]; 500.0 nM): 5 % UTC
% UTC (Yap1 mRNA) (Yap1 mRNA [1]; 2000.00 nM): 2 % UTC
IC50 (Yap1 mRNA [1]): < 30 nM
Yap1 mRNA, % UTC (Yap1 mRNA [3]; 0.04 μM): 35 % UTC
Yap1 mRNA, % UTC (Yap1 mRNA [3]; 0.2 μM): 12 % UTC
Yap1 mRNA, % UTC (Yap1 mRNA [3]; 1 μM): 5 % UTC
Yap1 mRNA, % UTC (Yap1 mRNA [3]; 5 μM): 3 % UTC
Yap1 mRNA in tumors, % control (Yap1 mRNA [4]; 25 mpk daily (5 doses)): 37 % control
Yap1 mRNA in tumors, % control (Yap1 mRNA [4]; 50 mpk daily (5 doses)): 19 % control
Complement C3 ([5]; Day 42 (pre-dose)): 99 mg/dL
Complement C3 ([5]; day 42 (24 hr post-dose)): 94 mg/dL
CRP [5]: 2.9 mg/L
BAS [6]: 0.3%
EOS [6]: 1.5%
HCT [6]: 48%
HGB [6]: 14 g/dL
LUC [6]: 0.6%
LYM [6]: 68%
MCH [6]: 22 pg
MCHC [6]: 28 g/dL
MCV [6]: 79 fL
MON [6]: 2.9%
NEU [6]: 27%
PLT [6]: 367 10^3/μL
RBC [6]: 6e+06 µL⁻¹
RCDW [6]: 12%
Retic [6]: 1.2%
WBC [6]: 10300 µL⁻¹
MPV [6]: 7.6 fL
ALB [8]: 4.0 g/dL
ALP [8]: 1298 IU/L
ALT [8]: 40 IU/L
AST [8]: 65 IU/L
BUN [8]: 24 mg/dL
CREA [8]: 0.9 mg/dL
GGT [8]: 63 IU/L
GLO [8]: 2.8 g/dL
GLU [8]: 115 mg/dL
HDL [8]: 82 mg/dL
LDL [8]: 59 mg/dL
TBIL [8]: 0.2 mg/dL
TG [8]: 28 mg/dL
TP [8]: 6.8 g/dL

1198440 (AAGTGTATGTCAGAAG; cEt, 2'-MOE, 5-methylcytosine, phosphorothioate modifications, further chemistry not given here) [compound 1198440]
% UTC (Yap1 mRNA) (Yap1 mRNA [1]; 31.3 nM): 55 % UTC
% UTC (Yap1 mRNA) (Yap1 mRNA [1]; 125.0 nM): 23 % UTC
% UTC (Yap1 mRNA) (Yap1 mRNA [1]; 500.0 nM): 6 % UTC
% UTC (Yap1 mRNA) (Yap1 mRNA [1]; 2000.00 nM): 2 % UTC
IC50 (Yap1 mRNA [1]): < 30 nM
Yap1 mRNA, % UTC (Yap1 mRNA [3]; 0.04 μM): 39 % UTC
Yap1 mRNA, % UTC (Yap1 mRNA [3]; 0.2 μM): 14 % UTC
Yap1 mRNA, % UTC (Yap1 mRNA [3]; 1 μM): 5 % UTC
Yap1 mRNA, % UTC (Yap1 mRNA [3]; 5 μM): 3 % UTC
Yap1 mRNA in tumors, % control (Yap1 mRNA [4]; 25 mpk daily (5 doses)): 32 % control
Yap1 mRNA in tumors, % control (Yap1 mRNA [4]; 50 mpk daily (5 doses)): 21 % control
Complement C3 ([5]; Day 42 (pre-dose)): 95 mg/dL
Complement C3 ([5]; day 42 (24 hr post-dose)): 88 mg/dL
CRP [5]: 4.8 mg/L
BAS [6]: 0.4%
EOS [6]: 2.8%
HCT [6]: 47%
HGB [6]: 14 g/dL
LUC [6]: 0.7%
LYM [6]: 65%
MCH [6]: 23 pg
MCHC [6]: 29 g/dL
MCV [6]: 80 fL
MON [6]: 3.2%
NEU [6]: 28%
PLT [6]: 420 10^3/μL
RBC [6]: 5.9e+06 µL⁻¹
RCDW [6]: 12%
Retic [6]: 1.2%
WBC [6]: 10900 µL⁻¹
MPV [6]: 7.5 fL
ALB [8]: 4.1 g/dL
ALP [8]: 1412 IU/L
ALT [8]: 45 IU/L
AST [8]: 75 IU/L
BUN [8]: 26 mg/dL
CREA [8]: 0.9 mg/dL
GGT [8]: 80 IU/L
GLO [8]: 2.9 g/dL
GLU [8]: 91 mg/dL
HDL [8]: 104 mg/dL
LDL [8]: 54 mg/dL
TBIL [8]: 0.2 mg/dL
TG [8]: 30 mg/dL
TP [8]: 7.0 g/dL
